One test deals with T1, RXRβ/VDR (UniProt P11473+P28704).
T1 construct: expressed in transfected cells; host or cells: CV-1
Briefly: Co-transfection of RXRβ and VD receptors in CV-1 cells. Format: cell-based.

The conditions of test [1]: rats. The method, then:
Male Sprague-Dawley rats (160-200 gram) were obtained from Harlan. Animals were fed standard laboratory diets (Harlan/Teklad) and kept in an environmentally controlled animal house with a light period lasting from 6 a.m. to 6 p.m. Animals were treated with drugs prepared as suspensions in olive oil.
[…]
Plasma total cholesterol was measured enzymatically utilizing Boeringer Mannheim Diagnostics High Performance Cholesterol Methods with an ABBOTT VP Bichromatic Analyzer. cholesterol was measured after preparation of the HDL-containing fraction by heparin-manganese precipitation of plasma. HDL-cholesterol in this fraction was estimated as mentioned earlier. All HDL separations were checked for contamination by other lipoproteins with agarose gel electrophoresis.

The next test concerns HL60 cells. In words: HL60 differentiation (NBT reduction). It is filed as cell-based.
Test [2] has as its system RPMI18226, a multiple myeloma. In words: Cell growth of RPMI18226. It is filed as cell-based, human. The settings on record: RPMI18226, cell number and growth in semi-solid medium. The text has this: (§1) The effects on growth of these cells were monitored by evaluation of cell number, and also by evaluation of growth in semi-solid medium for the RPMI18226 cell line. […] The therapeutic index is defined as the ratio of efficacy to toxicity of a compound.

The next test relates to RXRα/PPAR. In words: Co-transfection of RXRα and PPAR in HepG2 cells. It is filed as cell-based. An excerpt:
Specifically, peroxisome proliferator-activated receptor (PPAR) is a member of the intracellular receptor super family that plays a role in the modulation of lipid homeostasis. […] These agents, called peroxisome proliferators, have been used in man as hypolipidemic agents.

Test [3] deals with transglutaminase activity in the HL60 cells. Briefly: Transglutaminase induction in HL60 cells.
The test system of test [4] is ME180, a squamous cell carcinoma. Briefly: Cell growth of ME180. It is filed as cell-based, human. The settings on record: ME180, cell number.
From the text: as §1

A further test concerns apoA1. Briefly: Circulating apoA1 in rats (Western Blot). The settings on record: 3 mg/kg orally, daily for four days. On the technique in general: In western blotting, separated proteins are transferred to a membrane and probed.
The target of test [5] is T2, RARα (Homo sapiens, UniProt P10276).
T2 sequence (P10276 1-462): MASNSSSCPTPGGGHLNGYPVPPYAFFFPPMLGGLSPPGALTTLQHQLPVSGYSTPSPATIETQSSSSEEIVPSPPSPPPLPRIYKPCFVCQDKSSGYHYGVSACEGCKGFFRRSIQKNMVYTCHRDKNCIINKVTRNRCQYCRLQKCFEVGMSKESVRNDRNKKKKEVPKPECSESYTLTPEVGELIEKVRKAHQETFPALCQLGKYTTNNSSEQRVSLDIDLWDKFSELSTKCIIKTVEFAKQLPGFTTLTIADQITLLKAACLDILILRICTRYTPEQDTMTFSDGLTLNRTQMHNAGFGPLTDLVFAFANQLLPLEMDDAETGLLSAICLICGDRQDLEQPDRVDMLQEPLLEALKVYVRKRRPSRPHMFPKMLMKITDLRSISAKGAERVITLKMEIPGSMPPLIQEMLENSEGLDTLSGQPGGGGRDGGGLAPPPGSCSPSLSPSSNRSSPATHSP
Briefly: Radioligand displacement binding, RARα. On the set-up: made in house. Particulars: displacement of radiolabeled retinoic acid, read-out: Binding (Kd50 nM). A general note: Displacement assays read how much labelled ligand stays bound in the presence of the test substance.
Procedure: (§8) The binding parameters of receptors expressed in baculovirus systems and mammalian systems are essentially identical.
(§9) By testing the abilities of various synthetic retinoids to compete with the radiolabeled retinoic acid for binding to various receptor isoforms, the ability of the compounds to directly interact with the receptor can be examined, and the relative dissociation constant for the receptor itself can be determined.
(§10) The Kd values were determined by application of the Cleng-Prusoff equation. These values were based on a determination of the IC50 value as determined graphically from a log-logit plot of the data.

In test [6] the target is T3, RARβ (Homo sapiens, UniProt P10826).
T3 sequence (P10826 1-455): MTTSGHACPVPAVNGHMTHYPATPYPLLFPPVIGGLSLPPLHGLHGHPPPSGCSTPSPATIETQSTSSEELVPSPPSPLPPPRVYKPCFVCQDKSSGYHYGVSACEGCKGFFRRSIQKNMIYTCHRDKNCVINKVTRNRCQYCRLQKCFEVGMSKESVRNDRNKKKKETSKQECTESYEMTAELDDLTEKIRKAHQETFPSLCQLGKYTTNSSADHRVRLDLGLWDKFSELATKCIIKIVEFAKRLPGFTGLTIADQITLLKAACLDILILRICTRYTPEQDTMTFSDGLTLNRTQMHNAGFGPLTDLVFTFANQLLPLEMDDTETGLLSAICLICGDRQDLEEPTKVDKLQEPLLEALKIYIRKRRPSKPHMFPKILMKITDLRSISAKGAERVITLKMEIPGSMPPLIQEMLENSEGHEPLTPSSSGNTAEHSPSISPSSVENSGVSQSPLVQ
In words: Co-transfection (cis-trans) assay in CV-1 cells, RARβ. It is filed as cell-based. Also noted: expressed in transfected cells; host or cells: CV-1 (monkey kidney). The text has this:
(§2) The co-transfection assay provides a mechanism to evaluate the ability of a compound to modulate the transcription response initiated by an intracellular receptor. […] Berger, et al., J. Steroid Biochem Molec.
(§3) Briefly, the co-transfection assay involves the introduction of two plasmids by transient transfection into a retinoid receptor-negative mammalian cell background. The first plasmid contains a retinoid receptor cDNA and directs constitutive expression of the encoded receptor. The second plasmid contains a cDNA that encodes for a readily quantifiable protein, e.g., firefly luciferase or chloramphenicol acetyl transferase (CAT), under control of a promoter containing a retinoid acid response element, which confers retinoid dependence on the transcription of the reporter. In this co-transfection assay, all retinoid receptors respond to all-trans-retinoic acid in a similar fashion. This assay can be used to accurately measure efficacy and potency of retinoic acid and synthetic retinoids as ligands that interact with the individual retinoid receptor subtypes.
(§4) Accordingly, synthetic retinoid compounds of the current invention were evaluated for their interaction with retinoid receptor subtypes using the co-transfection assay in which CV-1 cells were co-transfected with one of the retinoid receptor subtypes, a reporter construct, and an internal control to allow normalization of the response for transfection efficiency. The following example is illustrative.
(§5) Retinoids: All-tans-retinoic acid (RA) and 13-cis-retinoic acid (13-cis-RA) were obtained from Sigma. […] Retinoids were dissolved in dimethylsulfoxide for use in the transcriptional activation assays.
(§6) Co-transfection Assay In CV-1 Cells: A monkey kidney cell line, CV-1, was used in the cis-trans assay. Cells were transfected with two plasmids. […] The cis-vector contains an easily assayable gene product, in this case the firefly luciferase, coupled to a retinoid-responsive promoter, i.e., an RARE or RXRE. Addition of retinoic acid or an appropriate synthetic retinoid results in the formation of a retinoid-RAR or -RXR complex that activates the expression of luciferase gene, causing light to be emitted from cell extracts. The level of luciferase activity is directly proportional to the effectiveness of the retinoid-receptor complex in activating gene expression. This sensitive and reproducible co-transfection approach permits the identification of retinoids that interact with the different receptor isoforms.
(§7) Cells were cultured in DMEM supplemented with 10% charcoal resin-stripped fetal bovine serum, and experiments were conducted in 96-well plates. […] Cells were transfected for 6 h and then washed to remove the precipitate. The cells were then incubated for 36 h with or without retinoid. After the transfection, all subsequent steps were performed on a Beckman Biomek Automated Workstation. […] All determinations were performed in triplicate in two independent experiments and were normalized for transfection efficiency by using β-galactosidase as the internal control. […] Efficacy values less than 5% are not statistically different than the 0% background.

Test [7] concerns the target T2, RARα. In words: Co-transfection (cis-trans) assay in CV-1 cells, RARα. On the set-up: expressed in transfected cells; host or cells: CV-1 (monkey kidney). Format: cell-based.
From the text: as §2, §3, §4, §5, §6, §7

Test [8] deals with T3, RARβ. Briefly: Radioligand displacement binding, RARβ.
Procedure: as §8, §9, §10
In test [9] the target is T4, RARγ (Homo sapiens, UniProt P13631).
T4 sequence (P13631 1-454): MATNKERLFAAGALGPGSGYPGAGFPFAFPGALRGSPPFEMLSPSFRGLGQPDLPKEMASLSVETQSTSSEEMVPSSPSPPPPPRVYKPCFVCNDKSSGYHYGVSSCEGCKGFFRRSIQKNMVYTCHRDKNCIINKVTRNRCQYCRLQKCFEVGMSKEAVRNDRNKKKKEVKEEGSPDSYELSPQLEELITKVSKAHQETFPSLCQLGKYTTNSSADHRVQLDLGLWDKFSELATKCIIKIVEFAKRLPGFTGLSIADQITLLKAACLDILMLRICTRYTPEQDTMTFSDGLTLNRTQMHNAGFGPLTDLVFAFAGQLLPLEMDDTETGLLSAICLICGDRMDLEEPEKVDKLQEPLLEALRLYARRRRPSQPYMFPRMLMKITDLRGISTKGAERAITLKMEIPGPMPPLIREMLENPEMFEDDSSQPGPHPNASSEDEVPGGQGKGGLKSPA
Briefly: Radioligand displacement binding, RARγ.
Procedure: as §8, §9, §10

Test [10] deals with T4, RARγ. In words: Co-transfection (cis-trans) assay in CV-1 cells, RARγ. It is filed as cell-based. On the set-up: expressed in transfected cells; host or cells: CV-1 (monkey kidney).
From the text: as §2, §3, §4, §5, §6, §7

[11] abbreviates: CV-1, maximal response relative to all-trans-retinoic acid at 10^−5 M, read-out: Efficacy.
[12] abbreviates: CV-1 cells, luciferase reporter, 36 h, read-out: Potency.

A value given as a limit tells only on which side of the number the result lay.

T1 sequence (P28704 whole entry): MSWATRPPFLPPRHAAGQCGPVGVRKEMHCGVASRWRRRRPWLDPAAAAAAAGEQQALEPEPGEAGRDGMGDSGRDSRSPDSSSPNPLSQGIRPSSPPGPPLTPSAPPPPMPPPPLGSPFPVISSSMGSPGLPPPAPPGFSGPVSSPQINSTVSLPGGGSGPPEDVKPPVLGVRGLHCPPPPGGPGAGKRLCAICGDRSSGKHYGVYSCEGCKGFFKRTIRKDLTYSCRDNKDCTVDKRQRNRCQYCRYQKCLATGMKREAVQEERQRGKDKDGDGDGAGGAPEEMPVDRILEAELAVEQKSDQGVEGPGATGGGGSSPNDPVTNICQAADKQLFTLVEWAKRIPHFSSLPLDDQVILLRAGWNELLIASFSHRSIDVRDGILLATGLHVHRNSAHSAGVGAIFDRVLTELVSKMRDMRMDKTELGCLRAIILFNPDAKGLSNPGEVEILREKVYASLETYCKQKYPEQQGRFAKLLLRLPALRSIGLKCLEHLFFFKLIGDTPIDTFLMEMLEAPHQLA
T1 sequence (P11473 whole entry): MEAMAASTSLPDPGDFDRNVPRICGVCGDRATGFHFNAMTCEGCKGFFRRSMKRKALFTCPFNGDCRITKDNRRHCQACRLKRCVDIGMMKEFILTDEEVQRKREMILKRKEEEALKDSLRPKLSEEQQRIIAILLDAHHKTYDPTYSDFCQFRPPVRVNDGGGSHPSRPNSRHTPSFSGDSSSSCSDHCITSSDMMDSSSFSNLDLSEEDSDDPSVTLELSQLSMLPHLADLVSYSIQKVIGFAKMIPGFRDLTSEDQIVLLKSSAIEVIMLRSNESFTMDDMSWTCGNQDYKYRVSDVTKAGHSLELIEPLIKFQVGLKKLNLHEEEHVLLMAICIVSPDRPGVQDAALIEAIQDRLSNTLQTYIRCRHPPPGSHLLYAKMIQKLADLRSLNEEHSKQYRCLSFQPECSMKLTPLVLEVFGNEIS
From the text for apoA1: Serum samples were taken and analyzed by Western Blot using antisera specific to rat apoA1.

In the case of 1,25-dihydroxy-vitamin D, the “Normalized Response (%)” value on RXRβ/VDR is 100%.

As for `C=C(c1ccc(C(=O)O)cc1)c1cc2c(cc1C)C(C)(C)CCC2(C)C` [3-methyl-TTNEB, 4-[1-(3,5,5,8,8-pentamethyl-5,6,7,8-tetrahydro-2-naphthyl)ethenyl]benzoic acid], in test [1] (100 mg/kg i.p., 4 days), the HDL levels entry is “substantial and statistically significant increases in HDL levels”. Besides, the “Development of tolerance to pharmacological action” value in [1] (30 day p.o. study, 10, 30, or 100 mg/kg) is reported as “did not indicate development of tolerance”. In addition, in test [1] (four days), the Total cholesterol entry is given as “showed an increase due to the increase of the HDL-cholesterol fraction” and the Triglycerides result is “either no change or a slight decrease”. For the same compound, in [1] (i.p., four days), the “Lowest dose with significant increase of HDL-cholesterol” value amounted to 0.3 mg/kg. In test [1] (optimally efficacious dose), the “Increase of plasma HDL-cholesterol” value was “greater than 60%”. The “Induction of differentiation (NBT reduction)” value with HL60 cells (HL60) is reported as “not to induce undue differentiation”. Moreover, in the test with HL60 cells (Homo sapiens, HL-60, read-out: EC50 for mediated differentiation), the EC50 is > 1000 µM. Besides, the “Effect on cell growth” value in [2] is listed as “inhibit cell growth in a concentration-dependent manner”. In addition, the “Normalized Response (%)” value in the test on RXRα/PPAR is listed as 90%. Further, the “Induction of transglutaminase activity” value in test [3] is “induce transglutaminase activity in the HL60 cells”. Moreover, the “Effect on cell growth” value in test [4] is on record as “inhibit cell growth in a concentration-dependent manner”. The “Circulating apoA1 level” value in the test on apoA1 is listed as “significant increase in circulating apoA1 level”.

Regarding `C=C(c1ccc(C(=O)O)cn1)c1cc2c(cc1C)C(C)(C)CCC2(C)C` [TPNEP (58), 2-[1-(3,5,5,8,8-pentamethyl-5,6,7,8-tetrahydro-2-naphthyl)ethenyl]pyridine-5-carboxylic acid], the Kd on RARα [5] was 7.8 µM; at RARβ [8], 4.9 µM; at RARγ [9], 6 µM. The values for the Emax at 10 µM on RARβ [6] (setting [11]), at RARα [7] (setting [11]) and on RARγ [10] (setting [11]) were < 2%, < 2% and 24%, respectively. Besides, the EC50 on RARβ [6] (setting [12]) is > 10 µM; at RARα [7] (setting [12]), > 10 µM; at RARγ [10] (setting [12]) it was 1.5 µM.

These data come from patent US6610883B1, “Compounds having selective activity for retinoid X receptors, and means for modulation of processes mediated by retinoid X receptors” (Ligand Pharmaceuticals, Inc., priority 1992, dated 2003).
